According to patent publication US6784175B2, “Use of substituted 1-amino-5-phenylpentane-3-ol and/or 1-amino-6-phenylhexane-3-ol compounds as medicaments” (Gruenenthal GmbH, priority 2000, dated 2004):
Structures can show the parent of a compound that is named as a salt.

Test system: (+)-MK801 binding site of the ionotropic NMDA receptor
Assay: (3H)-(+)-MK801 receptor bonding test on rat cerebral membrane homogenates
Conditions: 1 nmol/l (3H)-(+)-MK801, rat brain membrane homogenate; for Percentage inhibition of (3H)-(+)-MK801 binding at 10 μM: 10 μmol/l compound, triple determinations; for Ki: calculated from IC50 by Cheng-Prusoff equation
Procedure: Research to determine the NMDA antagonistic effect of each compound in general formula I was carried out on cerebral membrane homogenates (homogenate of rat brain without cerebellum, pons and medulla oblongata taken from male Wistar rats (Charles River, Sulzfeld, Germany)).
For this purpose, after separating the cerebellum, pons and medulla oblongata, freshly prepared rat brains were macerated in 50 mmol/l of tris/HCl (pH 7.7) with a Polytron homogeniser (model PT3000, Kinematika AG, Littau, Switzerland) at 6000 revolutions per minute (rpm) for 1 minute with ice cooling and centrifuged for 15 minutes at 4° C. and 60,000 g. After decanting and discarding the supernatant, again placing in 50 mmol/l of tris/HCl (pH 7.7) and macerating the membrane pellet with a homogeniser at 2000 rpm for 1 minute, it was centrifuged again for 15 minutes at 4° C. and 60,000 g. The supernatant was again discarding and the membrane pellet homogenised (2000 rpm for 1 minute) in 50 mmol/l of tris/HCl (pH 7.7) and frozen in aliquots at −70° C.
For the receptor bonding test, each aliquot was defrosted and then centrifuged for 15 minutes at 4° C. and 60,000 g. After decanting and discarding the supernatant, the membrane pellet was taken up with bonding test buffer and homogenised (2000 rpm for 1 minute). The bonding test buffer was 5 mmol/l tris/HCl (pH 7.7) supplemented with 30 μmol/l of glycine and 100 μmol/l of glutamic acid.
1 nmol/l of (^3H)-(+)-MK801 ((5R, 10S)-(+)-5-methyl-10,11-dihydro-5H-dibenzo(a,d)cycloheptane-5,10-imine was used as a radioactively marked ligand (NET-972, NEN, Cologne Germany). The proportion of unspecific bonding was determined in the presence of 10 μmol/l of non-radioactively marked (+)-MK801 (RBI/Sigma, Deisenhofen, Germany). In further batches, each of the compounds of general formula I were added in series of concentrations and the displacement of the radioactive ligand out of its specific bond to the NMDA receptor determined. All the batches were subjected to triple determinations. The batches were each incubated for 40 minutes at 25° C. in a water bath and then harvested for determination of the radioactive ligand bound to the cerebral membrane homogenate by means of filtration through glass-fibre filters (GF/B) (Whatman GF/B, Hassel, Munich, Germany). The radioactivity retained by the glass-fibre filter discs was measured in a β counter (Packard TRI-CARB Liquid Scintillation Analyser 2000CA, Packard Instrument, Meriden, Conn. 06450, USA) after adding a scintillator (“Ready Protein” scintillator, Beckmann Coulter GmhH, Krefeld, Germany).
The percentage inhibition of the specific bonding of the ligand (^3H)-(+)-MK801 in the presence of 10 μmol/l of each compound of general formula I resulting from the triple batches is used as a measure of the affinity of the compound for the (+)-MK801 binding site of the ionotropic NMDA receptor. From batches with concentration series of these compounds of general formula I, the IC50 values (concentration of substituted compounds with 50% displacement of radioactive ligand out of its specific bond) were calculated in accordance with the law of mass action using non-linear regression. From these IC50 values, the Kj values were calculated in accordance with the Cheng-Prusoff equation (Y. Cheng, W. H. Prusoff, 1973, Biochem. Pharmacol., 22, pp 3099-3108).

Row | Compound | Percentage inhibition of (3H)-(+)-MK801 binding at 10 μM (hydrochloride, 10 µM) | Ki (hydrochloride) | Percentage inhibition of (3H)-(+)-MK801 binding at 10 μM | Ki
1 | Cc1ccccc1C(C1CCCCC1(O)CCc1ccccc1Cl)N(C)C (single isomer, unassigned; (+)) [Example 49, (+)-15-1-[2-(2-chlorophenyl)ethyl]-2-(dimethylamino-o-tolylmethylcyclohexanol), hydrochloride] | 93% | 1300 nM | – | –
2 | CN(C)C(c1ccccc1)C1CCCCC1(O)CCCc1ccccc1.Cl (single isomer, unassigned; (+)) [Example 51, (+)-2-(dimethylaminophenylmethyl)-1-(3-phenylpropyl)cyclohexanol, hydrochloride] | 80% | 2300 nM | – | –
3 | CN(C)C(c1ccccc1Cl)C1CCCCC1(O)CCc1ccccc1F.Cl (single isomer, unassigned; (+)) [Example 53, (+)-2-[(2-chlorophenyl)dimethylaminomethyl]-1-[2-(2-fluorophenyl)ethyl]cyclohexanol, hydrochloride] | 104% | 500 nM | – | –
4 | Cc1ccccc1C(C1CCCCC1(O)CCc1ccccc1Cl)N(C)C (single isomer, unassigned; (-)) [Example 48, (−)-15-1-[2-(2-chlorophenyl)ethyl]-2-(dimethylamino-o-tolylmethylcyclohexanol), hydrochloride] | 99% | 400 nM | – | –
5 | CN(C)C(c1ccccc1)C1CCCCC1(O)CCCc1ccccc1.Cl (single isomer, unassigned; (-)) [Example 50, (−)-2-(dimethylaminophenylmethyl)1-(3-phenylpropyl)cyclohexanol, hydrochloride] | 87% | 600 nM | – | –
6 | CN(C)C(c1ccccc1Cl)C1CCCCC1(O)CCc1ccccc1F.Cl (single isomer, unassigned; (-)) [Example 52, (−)-2-[(2-chlorophenyl)dimethylaminomethyl]-1-[2-(2-fluorophenyl)ethyl]cyclohexanol, hydrochloride] | 105% | 200 nM | – | –
7 | Cc1ccccc1C(C1CCCCC1(O)CCc1cccc(Cl)c1)N(C)C.Cl (centres unmarked) [Example 16, 1-[2-(3-chlorophenyl)ethyl]-2-(dimethylamino-o-tolylmethyl)cyclohexanol, hydrochloride] | 92% | 1900 nM | – | –
8 | CN(C)C(c1ccccc1F)C1CCCCC1(O)CCc1ccc(F)cc1.Cl (centres unmarked) [Example 17, 2-[dimethylamino-(2-fluorophenyl)methyl]-1-[2-(4-fluorophenyl)ethyl]cyclohexanol, hydrochloride] | – | – | 54% | 5800 nM
9 | Cc1ccccc1C(C1CCCCC1(O)CCc1ccc(F)cc1)N(C)C.Cl (centres unmarked) [Example 18, 2-(dimethylamino-o-tolylmethyl)-1-[2-(4-fluorophenyl)ethyl]cyclohexanol, hydrochloride] | – | – | 54% | 6100 nM
10 | Cc1cccc(C(C2CCCCC2(O)CCc2ccccc2Cl)N(C)C)c1.Cl (centres unmarked) [Example 20, 1-[2-(2-chlorophenyl)ethyl]-2-(dimethylamino-m-tolylmethyl)cyclohexanol, hydrochloride] | – | – | 62% | 4300 nM
11 | CN(C)C(c1ccccc1F)C1CCCCC1(O)CCc1cccc(Cl)c1.Cl (centres unmarked) [Example 21, 1-[2-(3-chlorophenyl)ethyl]-2-(dimethylamino-(2-fluorophenyl)methyl]cyclohexanol, hydrochloride] | – | – | 90% | 2100 nM
12 | CN(C)C(c1cccc(F)c1)C1CCCCC1(O)CCc1ccccc1Cl.Cl (centres unmarked) [Example 22, 1-[2-(2-chlorophenyl)ethyl]-2-(dimethylamino-(3-fluorophenyl)methyl]cyclohexanol, hydrochloride] | – | – | 74% | 3000 nM
13 | Cc1ccccc1C(C1CCCCC1(O)CCc1ccccc1Cl)N1CCOCC1.Cl (centres unmarked) [Example 24, 1-[2-(2-chlorophenyl)ethyl]-2-(morpholine-4-yl-o-tolylmethyl)cyclohexanol, hydrochloride] | – | – | 48% | 3700 nM
14 | Cc1ccccc1C(C1CCCCC1(O)CCc1ccccc1Cl)N1CCCCC1.Cl (centres unmarked) [Example 25, 1-[2-(2-chlorophenyl)ethyl]-2-(piperidine-1-yl-o-tolylmethyl)cyclohexanol, hydrochloride] | – | – | 89% | 1400 nM
15 | Cc1ccccc1C(C1CCCCC1(O)CCc1cccc(Cl)c1)N(C)C.Cl (centres unmarked) [Example 26, 1-[2-(3-chlorophenyl)ethyl]-2-(dimethylamino-o-tolylmethyl)cyclohexanol, hydrochloride] | 89% | 1300 nM | – | –
16 | CN(C)C(c1ccccc1C(F)(F)F)C1CCCCC1(O)CCc1ccccc1.Cl (centres unmarked) [Example 27, 2-[dimethylamino-(2-trifluoromethylphenyl)methyl]-1-phenethylcyclohexanol, hydrochloride] | – | – | 67% | 4200 nM
17 | COc1ccccc1C(C1CCCCC1(O)CCc1ccccc1F)N(C)C.Cl (centres unmarked) [Example 28, 2-[dimethylamino-(2-methoxyphenyl)methyl]-1-[2-(2-fluorophenyl)ethyl]cyclohexanol, hydrochloride] | – | – | 82% | 2500 nM
18 | CN(C)C(c1ccccc1F)C1CCCCC1(O)CCc1ccccc1F.Cl (centres unmarked) [Example 29, 2-[dimethylamino-(2-fluorophenyl)methyl]-1-[2-(2-fluorophenyl)ethyl]cyclohexanol, hydrochloride] | – | – | 104% | 300 nM
19 | Cc1ccccc1C(C1CCCCC1(O)CCc1ccccc1F)N(C)C.Cl (centres unmarked) [Example 30, 2-(dimethylamino-o-tolylmethyl)-1-[2-(2-fluorophenyl)ethyl]cyclohexanol, hydrochloride] | – | – | 105% | 300 nM
20 | Cc1ccccc1C(C1CCCCC1(O)CCc1ccccc1F)N1CCCC1.Cl (centres unmarked) [Example 31, 1-[2-(2-fluorophenyl)ethyl]-2-(pyrrolidine-1-yl-o-tolylmethyl)cyclohexanol, hydrochloride] | – | – | 99% | 100 nM
21 | CN(C)C(c1ccccc1Br)C1CCCCC1(O)CCc1ccccc1Cl.Cl (centres unmarked) [Example 32, 2-[(2-bromophenyl)dimethylaminomethyl]-1-[2-(2-chlorophenyl)ethyl]cyclohexanol, hydrochloride] | – | – | 96% | 700 nM
22 | CN(C)C(c1ccccc1Cl)C1CCCCC1(O)CCc1ccccc1Cl.Cl (centres unmarked) [Example 33, 2-[(2-chlorophenyl)dimethylaminomethyl]-1-[2-(2-chlorophenyl)ethyl]cyclohexanol, hydrochloride] | – | – | 93% | 600 nM
23 | CN(C)C(c1ccccc1Br)C1CCCCC1(O)CCc1ccccc1F.Cl (centres unmarked) [Example 34, 2-[(2-bromophenyl)dimethylaminomethyl]-1-[2-(2-fluorophenyl)ethyl]cyclohexanol, hydrochloride] | – | – | 95% | 400 nM
24 | Cc1ccccc1CCC1(O)CCCCC1C(c1ccccc1Cl)N(C)C.Cl (centres unmarked) [Example 35, 2-[(2-chlorophenyl)dimethylaminomethyl]-1-(2-o-tolylethyl)cyclohexanol, hydrochloride] | – | – | 93% | 1800 nM
25 | CN(C)C(c1ccccc1Cl)C1CCCCC1(O)CCCc1ccccc1.Cl (centres unmarked) [Example 36, 2-[(2-chlorophenyl)dimethylaminomethyl]-1-(3-phenylpropyl)cyclohexanol, hydrochloride] | – | – | 85% | 1900 nM
